Results reported in ChEMBL document CHEMBL1201862, “PubChem BioAssay data set” (2004).
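Step 1: Grow cells in 96-well plates. Step 2: Expose to compound for 48 hours at 5 concentrations. Step 3: Interpolate endpoints linearly; if unreached, use highest concentration. The concentration for 50% growth inhibition is given as GI50.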 Active and inactive are the calls of the source. No stated cut-off is given here; in the data, active = GI50 up to about 1.1 µM and inactive = higher.

Experiments:
Assay in all cases: inhibition of tumour cell growth, NCI panel, 48 h
SNB-19 = test system: SNB-19
NCI/ADR-RES = test system: NCI/ADR-RES
NCI-H460 = test system: NCI-H460
UACC-257 = test system: UACC-257
SK-OV-3 = test system: SK-OV-3
T47D = test system: T47D
U-251 = test system: U-251
HCT-116 = test system: HCT-116
Hs-578T = test system: Hs-578T
SK-MEL-2 = test system: SK-MEL-2
SW-620 = test system: SW-620
SK-MEL-5 = test system: SK-MEL-5
RXF 393 = test system: RXF 393
PC-3 = test system: PC-3
EKVX = test system: EKVX
SK-MEL-28 = test system: SK-MEL-28
UO-31 = test system: UO-31
OVCAR-3 = test system: OVCAR-3
KM12 = test system: KM12
HL-60 = test system: HL-60
HT-29 = test system: HT-29
RPMI-8226 = test system: RPMI-8226
UACC-62 = test system: UACC-62
HCC 2998 = test system: HCC 2998
SNB-75 = test system: SNB-75
A549 = test system: A549
OVCAR-4 = test system: OVCAR-4
COLO 205 = test system: COLO 205
SR = test system: SR
TK-10 = test system: TK-10
MCF7 = test system: MCF7
OVCAR-5 = test system: OVCAR-5
HOP-62 = test system: HOP-62
NCI-H226 = test system: NCI-H226
A498 = test system: A498
MOLT-4 = test system: MOLT-4
OVCAR-8 = test system: OVCAR-8
Malme-3M = test system: Malme-3M
HOP-92 = test system: HOP-92
CAKI-1 = test system: CAKI-1
CCRF-CEM = test system: CCRF-CEM
DU-145 = test system: DU-145
NCI-H522 = test system: NCI-H522
IGROV-1 = test system: IGROV-1
MDA-MB-435 = test system: MDA-MB-435
HCT-15 = test system: HCT-15
SF-268 = test system: SF-268
LOX IMVI = test system: LOX IMVI
NCI-H23 = test system: NCI-H23
786-0 = test system: 786-0
MDA-N = test system: MDA-N
K562 = test system: K562
M14 = test system: M14
SN12C = test system: SN12C
BT-549 = test system: BT-549
MDA-MB-231 = test system: MDA-MB-231
SF-295 = test system: SF-295
ACHN = test system: ACHN
SF-539 = test system: SF-539

Structure (SMILES): COc1cc(/C=C2/CCCc3ccccc3C2=O)cc(OC)c1OC
- GI50 (SNB-19): 32.5 µM (inactive)
- GI50 (NCI/ADR-RES): 9.2 µM (inactive)
- GI50 (NCI-H460): 20.8 µM (inactive)
- GI50 (UACC-257): 12.9 µM (inactive)
- GI50 (SK-OV-3): 25.5 µM (inactive)
- GI50 (T47D): 5.92 µM (inactive)
- GI50 (U-251): 15.5 µM (inactive)
- GI50 (HCT-116): 6.65 µM (inactive)
- GI50 (Hs-578T): 18.2 µM (inactive)
- GI50 (SK-MEL-2): 20.6 µM (inactive)
- GI50 (SW-620): 22.4 µM (inactive)
- GI50 (SK-MEL-5): 3.27 µM (inactive)
- GI50 (RXF 393): 28.9 µM (inactive)
- GI50 (PC-3): 10.1 µM (inactive)
- GI50 (EKVX): 17.6 µM (inactive)
- GI50 (SK-MEL-28): 22 µM (inactive)
- GI50 (UO-31): 14.6 µM (inactive)
- GI50 (OVCAR-3): 19.2 µM (inactive)
- GI50 (KM12): 11.7 µM (inactive)
- GI50 (HL-60): 2.72 µM (inactive)
- GI50 (HT-29): 17.5 µM (inactive)
- GI50 (RPMI-8226): 2.63 µM (inactive)
- GI50 (UACC-62): 16.4 µM (inactive)
- GI50 (HCC 2998): 22.5 µM (inactive)
- GI50 (SNB-75): 12.4 µM (inactive)
- GI50 (A549): 27 µM (inactive)
- GI50 (OVCAR-4): 17.2 µM (inactive)
- GI50 (COLO 205): 18.2 µM (inactive)
- GI50 (SR): 2.74 µM (inactive)
- GI50 (TK-10): 22.5 µM (inactive)
- GI50 (MCF7): 9.79 µM (inactive)
- GI50 (OVCAR-5): 30.6 µM (inactive)
- GI50 (HOP-62): 24.2 µM (inactive)
- GI50 (NCI-H226): 9.62 µM (inactive)
- GI50 (A498): 7.89 µM (inactive)
- GI50 (MOLT-4): 3.46 µM (inactive)
- GI50 (OVCAR-8): 13.7 µM (inactive)
- GI50 (Malme-3M): 12.7 µM (inactive)
- GI50 (HOP-92): 14.8 µM (inactive)
- GI50 (CAKI-1): 18.8 µM (inactive)
- GI50 (CCRF-CEM): 4.19 µM (inactive)
- GI50 (DU-145): 11.9 µM (inactive)
- GI50 (NCI-H522): 11.3 µM (inactive)
- GI50 (IGROV-1): 28.9 µM (inactive)
- GI50 (MDA-MB-435): 7.85 µM (inactive)
- GI50 (HCT-15): 12.6 µM
- GI50 (SF-268): 14.7 µM (inactive)
- GI50 (LOX IMVI): 15.4 µM (inactive)
- GI50 (NCI-H23): 18.4 µM (inactive)
- GI50 (786-0): 18.3 µM (inactive)
- GI50 (MDA-N): 9.53 µM (inactive)
- GI50 (K562): 2.65 µM (inactive)
- GI50 (M14): 18.7 µM (inactive)
- GI50 (SN12C): 15.1 µM (inactive)
- GI50 (BT-549): 13.8 µM (inactive)
- GI50 (MDA-MB-231): 15.6 µM (inactive)
- GI50 (SF-295): 18.4 µM (inactive)
- GI50 (ACHN): 15.8 µM (inactive)
- GI50 (SF-539): 18.6 µM (inactive)

Structure (SMILES): NC(=O)NNCc1c(-c2ccccc2)no[n+]1[O-]
- GI50 (SNB-19): > 100 µM (inactive)
- GI50 (NCI/ADR-RES): > 100 µM (inactive)
- GI50 (NCI-H460): > 100 µM (inactive)
- GI50 (UACC-257): > 100 µM (inactive)
- GI50 (SK-OV-3): > 100 µM (inactive)
- GI50 (T47D): > 100 µM (inactive)
- GI50 (U-251): > 100 µM (inactive)
- GI50 (HCT-116): > 100 µM (inactive)
- GI50 (Hs-578T): > 100 µM (inactive)
- GI50 (SK-MEL-2): > 100 µM (inactive)
- GI50 (SW-620): > 100 µM (inactive)
- GI50 (SK-MEL-5): > 100 µM (inactive)
- GI50 (RXF 393): > 100 µM (inactive)
- GI50 (PC-3): > 100 µM (inactive)
- GI50 (EKVX): > 100 µM (inactive)
- GI50 (SK-MEL-28): > 100 µM (inactive)
- GI50 (UO-31): > 100 µM (inactive)
- GI50 (OVCAR-3): > 100 µM (inactive)
- GI50 (KM12): > 100 µM (inactive)
- GI50 (HL-60): > 100 µM (inactive)
- GI50 (HT-29): > 100 µM (inactive)
- GI50 (RPMI-8226): > 100 µM (inactive)
- GI50 (UACC-62): > 100 µM (inactive)
- GI50 (HCC 2998): > 100 µM (inactive)
- GI50 (SNB-75): > 100 µM (inactive)
- GI50 (A549): > 100 µM (inactive)
- GI50 (OVCAR-4): > 100 µM (inactive)
- GI50 (COLO 205): > 100 µM (inactive)
- GI50 (SR): > 100 µM (inactive)
- GI50 (TK-10): > 100 µM (inactive)
- GI50 (MCF7): > 100 µM (inactive)
- GI50 (OVCAR-5): > 100 µM (inactive)
- GI50 (HOP-62): > 100 µM (inactive)
- GI50 (NCI-H226): > 100 µM (inactive)
- GI50 (A498): > 100 µM (inactive)
- GI50 (MOLT-4): > 100 µM (inactive)
- GI50 (OVCAR-8): > 100 µM (inactive)
- GI50 (Malme-3M): > 100 µM (inactive)
- GI50 (HOP-92): > 100 µM (inactive)
- GI50 (CAKI-1): > 100 µM (inactive)
- GI50 (CCRF-CEM): > 100 µM (inactive)
- GI50 (DU-145): > 100 µM (inactive)
- GI50 (NCI-H522): > 100 µM (inactive)
- GI50 (IGROV-1): > 100 µM (inactive)
- GI50 (MDA-MB-435): > 100 µM (inactive)
- GI50 (HCT-15): > 100 µM
- GI50 (SF-268): > 100 µM (inactive)
- GI50 (LOX IMVI): > 100 µM (inactive)
- GI50 (NCI-H23): > 100 µM (inactive)
- GI50 (786-0): > 100 µM (inactive)
- GI50 (MDA-N): > 100 µM (inactive)
- GI50 (K562): > 100 µM (inactive)
- GI50 (M14): > 100 µM (inactive)
- GI50 (SN12C): > 100 µM (inactive)
- GI50 (BT-549): > 100 µM (inactive)
- GI50 (MDA-MB-231): > 100 µM (inactive)
- GI50 (SF-295): > 100 µM (inactive)
- GI50 (ACHN): > 100 µM (inactive)
- GI50 (SF-539): > 100 µM (inactive)
